Measured values published in PubChem BioAssay (NCI).
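Tested at 5 concentrations; 48 h exposure; 96-well plates; endpoints linearly interpolated, else capped at highest concentration. The concentration for 50% growth inhibition is given as GI50. TGI: total growth inhibition.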

Experiments:
Assay in all cases: NCI-60 cell line screen, 48 h
A498 renal = tested on: A498 renal
A549 NSCLC = tested on: A549 NSCLC
CAKI-1 renal = tested on: CAKI-1 renal
EKVX NSCLC = tested on: EKVX NSCLC
K-562 leukemia = tested on: K-562 leukemia
MALME-3M melanoma = tested on: MALME-3M melanoma
NCI-H226 lung = tested on: NCI-H226 lung
NCI-H23 lung = tested on: NCI-H23 lung
SK-MEL-2 melanoma = tested on: SK-MEL-2 melanoma
UACC-62 melanoma = tested on: UACC-62 melanoma

| Structure (SMILES) | TGI (A498 renal) [µM] | TGI (A549 NSCLC) [µM] | TGI (CAKI-1 renal) [µM] | TGI (EKVX NSCLC) [µM] | TGI (K-562 leukemia) [µM] | TGI (MALME-3M melanoma) [µM] | TGI (NCI-H226 lung) [µM] | TGI (NCI-H23 lung) [µM] | TGI (SK-MEL-2 melanoma) [µM] | TGI (UACC-62 melanoma) [µM] | GI50 (A498 renal) [µM] | GI50 (A549 NSCLC) [µM] | GI50 (CAKI-1 renal) [µM] | GI50 (EKVX NSCLC) [µM] | GI50 (K-562 leukemia) [µM] | GI50 (MALME-3M melanoma) [µM] | GI50 (NCI-H226 lung) [µM] | GI50 (NCI-H23 lung) [µM] | GI50 (SK-MEL-2 melanoma) [µM] | GI50 (UACC-62 melanoma) [µM] |
| --- | --- | --- | --- | --- | --- | --- | --- | --- | --- | --- | --- | --- | --- | --- | --- | --- | --- | --- | --- | --- |
| CCCCN1C(=O)c2c(-c3sccc3N)sc(-c3sccc3N)c2C1=O | 76.8 | > 100 | > 100 | > 83.7 | > 100 | > 100 | 42.7 | > 100 | > 100 | > 64.6 |  |  |  |  |  |  |  |  |  |  |
| O=C(CCCCCCC(=O)Nc1cccnc1)NO | > 100 | > 100 | > 100 | > 100 | > 100 | > 100 | > 100 | > 100 | 17.9 | 18.5 |  |  |  |  |  |  |  |  |  |  |
| Brc1ccc2c([C@H]3CN[C@@H](c4c[nH]c5cc(Br)ccc45)CN3)c[nH]c2c1 | 3.6 | 7.39 | 11.3 | 23.2 | 4.02 | 7.73 | 20.8 | 8.95 | 9.76 | 23.2 |  |  |  |  |  |  |  |  |  |  |
| COc1ccc2oc(OC)c(CC=C(C)C)c(=O)c2c1C | > 100 | > 100 | > 100 | > 100 | > 100 | > 100 | > 100 | > 100 | > 100 | > 100 |  |  |  |  |  |  |  |  |  |  |
| NCCCNC1(c2cc3ccccc3s2)CCCCC1 | 9.03 | 21.5 | 23 | 22.5 | 5.38 | 3.65 | 33.3 | 31.3 | 4.2 | 3.87 |  |  |  |  |  |  |  |  |  |  |
| Cc1cc(C)c2c(n1)S(=O)(=O)N(CCCN1CCN(c3cccc(C(F)(F)F)c3)CC1)c1c-2nn(C)c1C | > 100 | > 100 | > 100 | > 100 | > 100 | > 100 | > 100 | > 100 | > 100 | > 100 |  |  |  |  |  |  |  |  |  |  |
| CC1OC2(CC(OCc3ccccc3)C1OCc1ccccc1)OCCO2 (stereo not given) | > 100 | > 100 | > 100 | > 100 | > 100 | > 100 | > 100 | > 100 | > 100 | > 100 |  |  |  |  |  |  |  |  |  |  |
| Cc1cc(C)nc(SC(C)C(=O)N/N=C/c2ccc(OCc3ccccc3)cc2)n1 (stereo not given) | > 100 | > 100 | > 100 | > 100 | > 100 | > 100 | 93.5 | > 100 | 46.1 | 92.5 |  |  |  |  |  |  |  |  |  |  |
| CN(C)c1ccccc1CN1CCCN(Cc2ccccc2N(C)C)C1c1ccncc1 | 24.8 | 40.7 | 34.6 | 38 | 23.9 | 23.4 | 38.7 | 43 | 36.5 | 27.6 |  |  |  |  |  |  |  |  |  |  |
| O=C(O)c1cn2c3c(cc(N4CCN(CCO)CC4)cc3c1=O)SCC2 | > 100 | > 100 | > 100 | > 100 | > 100 | > 100 | > 100 | > 100 | > 100 | > 100 |  |  |  |  |  |  |  |  |  |  |
| COC(=O)C1=C(O)C(C(=O)OC)[C@]2(O)[C@H](C(=O)OC)[C@H]1C[C@@H](c1c(Cl)cccc1Cl)[C@H]2C(=O)OC (stereo not given in full) | 4.15 | 6.21 | 11.3 | 18.4 | 6.92 | 5.25 | 4.87 | 5.44 | 3.33 | 5.56 |  |  |  |  |  |  |  |  |  |  |
| COc1ccc(OC)c(CC2CCc3nc(N)nc(N)c3C2)c1 (stereo not given) | 62 | > 100 | > 100 | > 100 | > 100 | 24.2 | > 49.4 | > 49.8 | 43.6 | 25.8 |  |  |  |  |  |  |  |  |  |  |
| COc1ccc(C(SCCO)(c2ccccc2)c2ccccc2)cc1 | 33.3 | 24.6 | 32.2 | 28.3 | > 100 | 38.5 | 30.2 | 34 | 28 | 28.1 |  |  |  |  |  |  |  |  |  |  |
| N#C/C(=C\c1cc(Cl)cc(Cl)c1)c1ccccn1 | 8.25 | > 100 | > 100 | 60 | > 100 | > 100 | 85.7 | > 100 | > 100 | > 100 |  |  |  |  |  |  |  |  |  |  |
| COc1ccc2sc(-n3nc4ccccc4c3Nc3nc4ccc(OC)cc4s3)nc2c1 | 5.63 | 18.5 | 6.89 | 19.3 | > 38.9 | 14.8 | 13.9 | 5.25 | > 52.4 | 10.8 |  |  |  |  |  |  |  |  |  |  |
| CCOC(=O)c1c(N2CCCC2)[nH]c(=O)c(C(c2ccco2)c2c(O)c(C(=O)OCC)c(N3CCCC3)[nH]c2=O)c1O | > 100 | > 100 | > 100 | > 100 | > 100 | > 100 | > 100 | > 100 | > 100 | > 100 |  |  |  |  |  |  |  |  |  |  |

| Structure (SMILES) | TGI (A498 renal) [µM] | TGI (A549 NSCLC) [µM] | TGI (CAKI-1 renal) [µM] | TGI (EKVX NSCLC) [µM] | TGI (K-562 leukemia) [µM] | TGI (MALME-3M melanoma) [µM] | TGI (NCI-H226 lung) [µM] | TGI (NCI-H23 lung) [µM] | TGI (SK-MEL-2 melanoma) [µM] | TGI (UACC-62 melanoma) [µM] | GI50 (A498 renal) [µM] | GI50 (A549 NSCLC) [µM] | GI50 (CAKI-1 renal) [µM] | GI50 (EKVX NSCLC) [µM] | GI50 (K-562 leukemia) [µM] | GI50 (MALME-3M melanoma) [µM] | GI50 (NCI-H226 lung) [µM] | GI50 (NCI-H23 lung) [µM] | GI50 (SK-MEL-2 melanoma) [µM] | GI50 (UACC-62 melanoma) [µM] |
| --- | --- | --- | --- | --- | --- | --- | --- | --- | --- | --- | --- | --- | --- | --- | --- | --- | --- | --- | --- | --- |
| Cc1cc(NC[C@H](O)[C@H](O)[C@H](O)CO)c(Sc2cc(=O)[nH]c(=O)[nH]2)cc1C | > 62.5 | > 62.5 | > 62.5 | > 62.5 | > 62.5 | > 62.5 | > 62.5 | > 62.5 | > 62.5 | > 62.5 |  |  |  |  |  |  |  |  |  |  |
| CC(=O)N(O)[C@@H]1CC[C@H](n2cnc3c(N)ncnc32)C1 | > 100 | > 100 | > 100 | > 100 | > 100 | > 100 | > 100 | > 100 | > 100 | > 100 |  |  |  |  |  |  |  |  |  |  |
| Cn1/c(=N\S(=O)(=O)c2ccccc2)n(S(=O)(=O)c2ccccc2)c2ccccc21 | > 100 | > 100 | > 100 | > 100 | > 100 | > 100 | > 100 | > 100 | > 100 | > 100 |  |  |  |  |  |  |  |  |  |  |
| Cc1cc(Cc2c(F)c(F)c(C(c3cc(C)no3)c3c(F)c(F)c(F)c(F)c3F)c(F)c2F)on1 (stereo not given) | > 100 | > 100 | > 100 | > 100 | > 100 | > 100 | > 100 | > 100 | > 100 | > 100 |  |  |  |  |  |  |  |  |  |  |
| Nc1nc(Cl)cc(NCCC2(CO)CCC2)n1 | > 100 | > 100 | > 100 | > 100 | > 100 | > 100 | > 100 | > 100 | > 100 | > 100 |  |  |  |  |  |  |  |  |  |  |
| Cc1noc2nnn(-c3ccc(Cl)cc3)c(=O)c12 | 27.1 | 27.7 | 13 | 20.4 | 11.2 | 26 | 9.83 | 20.5 | 10.5 | 17.8 |  |  |  |  |  |  |  |  |  |  |
| CCOC(=O)c1ccc(C(=O)/C(C(C)=O)=C2\CCCN2C)n1C | > 100 | > 100 | > 100 | > 100 | > 100 | > 100 | > 100 | > 100 | > 100 | > 100 |  |  |  |  |  |  |  |  |  |  |
| O=C1/C(=C/c2ccc(Cl)cc2)N=C(c2ccccc2)N1CCc1cccs1 | > 100 | > 100 | > 100 | > 100 | > 100 | > 100 | > 100 | > 100 | > 100 | 63.2 | 16.7 | 31.4 | 20.4 | 13.8 | 22.9 | 35.1 | 21.2 | 20 | 14 | 13.8 |
| Cn1c2ccccc2c2c(=O)[nH]c(=O)[nH]c21 | > 100 | > 100 | > 100 | > 100 | > 100 | > 100 | > 100 | > 100 | > 100 | > 100 |  |  |  |  |  |  |  |  |  |  |
| O=C(/C=C/c1cc(O)c(O)cc1O)OCCc1ccccc1 | 37.4 | > 100 | 78.3 | > 95.6 | 6.89 | 28.2 | > 100 | 53.1 | 47.2 | 40.5 |  |  |  |  |  |  |  |  |  |  |
| O=C/C=C/c1ccco1 | > 100 | > 100 | > 100 | > 100 | > 100 | > 100 | > 100 | > 100 | > 100 | > 100 |  |  |  |  |  |  |  |  |  |  |
| CC1(CCCO)CCCCCCCCCC(C)(CCCO)C1=O (stereo not given) | > 100 | > 100 | > 100 | > 100 | > 100 | > 100 | > 100 | > 100 | > 100 | > 100 |  |  |  |  |  |  |  |  |  |  |
| C#CC1(O)C(COP(=O)(O)OCC2OC(n3ccc(NCCCCCCCCCCCCCCCCCC)nc3=O)C(O)C2O)OC(n2ccc(N)nc2=O)C1O (stereo not given) | 59.2 | > 55.9 | 6.77 | 54.1 | 19.9 | 11 | > 46.4 | 55.8 | 5.3 | 10.3 |  |  |  |  |  |  |  |  |  |  |
| NC1CC2NC3CCCCC3NC2CC1N (stereo not given) | 79.4 | > 100 | > 100 | > 100 | > 100 | > 100 | > 100 | > 100 | > 100 | > 100 |  |  |  |  |  |  |  |  |  |  |
| Nc1nc(N)c2ncn(Cc3ccccc3CCl)c2n1 | > 100 | > 100 | > 100 | > 100 | > 100 | > 100 | > 100 | > 100 | > 100 | > 100 |  |  |  |  |  |  |  |  |  |  |
| CCOC(=O)C1OC(C2(C)OC3(OC4(C=CC3O)OC(C(C)C(=O)C(C)C(O)C(C)CC(C)c3c(Cl)cc(C)c(O)c3C(=O)O)C(C)CC4C)C(C)C2OC)CC1O (stereo not given) | 2.51 | 7.27 | 10.4 | 5.02 | 5.16 | 1.81 | 1.84 | 5.77 | 1.13 | 1.25 |  |  |  |  |  |  |  |  |  |  |
